Assay results from PubChem BioAssay (NCI).
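How tested: cells in 96-well plates exposed to compound for 48 hours at five concentrations. At the GI50, growth is halved. The concentration for full growth arrest is given as TGI.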

Key:
Assay in all cases: DTP human tumour cell line panel, 48 h
HL-60(TB) leukemia = test system: HL-60(TB) leukemia
786-0 renal = test system: 786-0 renal
M14 melanoma = test system: M14 melanoma
SF-539 CNS = test system: SF-539 CNS
IGROV1 ovarian = test system: IGROV1 ovarian
HCT-116 colon = test system: HCT-116 colon
SK-MEL-5 melanoma = test system: SK-MEL-5 melanoma
SF-268 CNS = test system: SF-268 CNS
UACC-62 melanoma = test system: UACC-62 melanoma
HOP-92 NSCLC = test system: HOP-92 NSCLC
ACHN renal = test system: ACHN renal
SN12C renal = test system: SN12C renal
NCI-H460 lung = test system: NCI-H460 lung
RPMI-8226 leukemia = test system: RPMI-8226 leukemia
MDA-MB-231 breast = test system: MDA-MB-231 breast
A549 NSCLC = test system: A549 NSCLC
BT-549 breast = test system: BT-549 breast
OVCAR-4 ovarian = test system: OVCAR-4 ovarian
TK-10 renal = test system: TK-10 renal
SF-295 CNS = test system: SF-295 CNS
MDA-MB-435 = test system: MDA-MB-435
T-47D breast = test system: T-47D breast
SR leukemia = test system: SR leukemia
NCI-H522 lung = test system: NCI-H522 lung
HCT-15 colon = test system: HCT-15 colon
MDA-MB-468 breast = test system: MDA-MB-468 breast
OVCAR-8 ovarian = test system: OVCAR-8 ovarian
A498 renal = test system: A498 renal
MCF7 breast = test system: MCF7 breast
SK-MEL-28 melanoma = test system: SK-MEL-28 melanoma
UACC-257 melanoma = test system: UACC-257 melanoma
DU-145 prostate = test system: DU-145 prostate
SW-620 colon = test system: SW-620 colon
NCI-H226 lung = test system: NCI-H226 lung
MOLT-4 leukemia = test system: MOLT-4 leukemia
HS 578T breast = test system: HS 578T breast
UO-31 renal = test system: UO-31 renal
HOP-62 NSCLC = test system: HOP-62 NSCLC
NCI-H23 lung = test system: NCI-H23 lung
U251 CNS = test system: U251 CNS
LOX IMVI melanoma = test system: LOX IMVI melanoma
NCI/ADR-RES ovarian = test system: NCI/ADR-RES ovarian
PC-3 prostate = test system: PC-3 prostate
CAKI-1 renal = test system: CAKI-1 renal
OVCAR-3 ovarian = test system: OVCAR-3 ovarian
OVCAR-5 ovarian = test system: OVCAR-5 ovarian
SNB-75 CNS = test system: SNB-75 CNS
EKVX NSCLC = test system: EKVX NSCLC
COLO 205 colon = test system: COLO 205 colon
HT29 colon = test system: HT29 colon
K-562 leukemia = test system: K-562 leukemia
SK-MEL-2 melanoma = test system: SK-MEL-2 melanoma
MALME-3M melanoma = test system: MALME-3M melanoma
RXF 393 renal = test system: RXF 393 renal
HCC-2998 colon = test system: HCC-2998 colon
CCRF-CEM leukemia = test system: CCRF-CEM leukemia
SNB-19 CNS = test system: SNB-19 CNS
SK-OV-3 ovarian = test system: SK-OV-3 ovarian
KM12 colon = test system: KM12 colon

C[C@@H](Nc1c(C#N)cnc2ccc(-c3cnc4[nH]ncc4c3)cc12)c1ccccc1
GI50 (HL-60(TB) leukemia): 1.74 µM
TGI (HL-60(TB) leukemia): 7.98 µM
GI50 (786-0 renal): 2.74 µM
TGI (786-0 renal): 11.3 µM
GI50 (M14 melanoma): 2.43 µM
TGI (M14 melanoma): 19.1 µM
GI50 (SF-539 CNS): 2.59 µM
TGI (SF-539 CNS): 12.2 µM
GI50 (IGROV1 ovarian): 1.91 µM
TGI (IGROV1 ovarian): 4.07 µM
GI50 (HCT-116 colon): 3.77 µM
TGI (HCT-116 colon): 16.1 µM
GI50 (SK-MEL-5 melanoma): 1.71 µM
TGI (SK-MEL-5 melanoma): 5.96 µM
GI50 (SF-268 CNS): 3.56 µM
TGI (SF-268 CNS): 34 µM
GI50 (UACC-62 melanoma): 1.94 µM
TGI (UACC-62 melanoma): 5.86 µM
GI50 (HOP-92 NSCLC): 1.08 µM
TGI (HOP-92 NSCLC): 7.29 µM
GI50 (ACHN renal): 0.699 µM
TGI (ACHN renal): 11.3 µM
GI50 (SN12C renal): 1.57 µM
TGI (SN12C renal): 12.8 µM
GI50 (NCI-H460 lung): 2.66 µM
TGI (NCI-H460 lung): 13.2 µM
GI50 (RPMI-8226 leukemia): 2.04 µM
TGI (RPMI-8226 leukemia): 11.3 µM
GI50 (MDA-MB-231 breast): 2.38 µM
TGI (MDA-MB-231 breast): 13.8 µM
GI50 (A549 NSCLC): 2.53 µM
TGI (A549 NSCLC): 10.9 µM
GI50 (BT-549 breast): 0.353 µM
TGI (BT-549 breast): 4.83 µM
GI50 (OVCAR-4 ovarian): 3.47 µM
TGI (OVCAR-4 ovarian): 18 µM
GI50 (TK-10 renal): 2.96 µM
TGI (TK-10 renal): 8.36 µM
GI50 (SF-295 CNS): 2.11 µM
TGI (SF-295 CNS): 10.5 µM
GI50 (MDA-MB-435): 3.5 µM
TGI (MDA-MB-435): 19.5 µM
GI50 (T-47D breast): 2.88 µM
TGI (T-47D breast): 8.36 µM
GI50 (SR leukemia): 2.23 µM
TGI (SR leukemia): 19.7 µM
GI50 (NCI-H522 lung): 1.71 µM
TGI (NCI-H522 lung): 11.6 µM
GI50 (HCT-15 colon): 3.17 µM
TGI (HCT-15 colon): 16.4 µM
GI50 (MDA-MB-468 breast): 1.16 µM
TGI (MDA-MB-468 breast): 2.67 µM
GI50 (OVCAR-8 ovarian): 2.33 µM
TGI (OVCAR-8 ovarian): 23.5 µM
GI50 (A498 renal): 2.55 µM
TGI (A498 renal): 6.8 µM
GI50 (MCF7 breast): 1.87 µM
TGI (MCF7 breast): 7.81 µM
GI50 (SK-MEL-28 melanoma): 2.06 µM
TGI (SK-MEL-28 melanoma): 14.4 µM
GI50 (UACC-257 melanoma): 3.24 µM
TGI (UACC-257 melanoma): 16.3 µM
GI50 (DU-145 prostate): 2.76 µM
TGI (DU-145 prostate): 25.2 µM
GI50 (SW-620 colon): 4.65 µM
TGI (SW-620 colon): 23.2 µM
GI50 (NCI-H226 lung): 2.85 µM
TGI (NCI-H226 lung): 14.3 µM
GI50 (MOLT-4 leukemia): 1.61 µM
TGI (MOLT-4 leukemia): 5.02 µM
GI50 (HS 578T breast): 1.27 µM
TGI (HS 578T breast): 5.37 µM
GI50 (UO-31 renal): 0.468 µM
TGI (UO-31 renal): 10.8 µM
GI50 (HOP-62 NSCLC): 3.03 µM
TGI (HOP-62 NSCLC): 19 µM
GI50 (NCI-H23 lung): 4.31 µM
TGI (NCI-H23 lung): 22 µM
GI50 (U251 CNS): 4.91 µM
TGI (U251 CNS): 22.7 µM
GI50 (LOX IMVI melanoma): 3.12 µM
TGI (LOX IMVI melanoma): 16.7 µM
GI50 (NCI/ADR-RES ovarian): 3.71 µM
TGI (NCI/ADR-RES ovarian): 34.8 µM
GI50 (PC-3 prostate): 2.58 µM
TGI (PC-3 prostate): > 100 µM
GI50 (CAKI-1 renal): 2.78 µM
TGI (CAKI-1 renal): 10.9 µM
GI50 (OVCAR-3 ovarian): 2.14 µM
TGI (OVCAR-3 ovarian): 11.9 µM
GI50 (OVCAR-5 ovarian): 3.89 µM
TGI (OVCAR-5 ovarian): 18.3 µM
GI50 (SNB-75 CNS): 1.1 µM
TGI (SNB-75 CNS): 5.16 µM
GI50 (EKVX NSCLC): 0.827 µM
TGI (EKVX NSCLC): 4.45 µM
GI50 (COLO 205 colon): 16.3 µM
TGI (COLO 205 colon): 37 µM
GI50 (HT29 colon): 14.5 µM
TGI (HT29 colon): 35.2 µM
GI50 (K-562 leukemia): 4.67 µM
TGI (K-562 leukemia): > 100 µM
GI50 (SK-MEL-2 melanoma): 3.23 µM
TGI (SK-MEL-2 melanoma): 16 µM
GI50 (MALME-3M melanoma): 1.16 µM
TGI (MALME-3M melanoma): 7.27 µM
GI50 (RXF 393 renal): 1.26 µM
TGI (RXF 393 renal): 3.55 µM
GI50 (HCC-2998 colon): 4.69 µM
TGI (HCC-2998 colon): 26 µM
GI50 (CCRF-CEM leukemia): 2.46 µM
TGI (CCRF-CEM leukemia): > 100 µM
GI50 (SNB-19 CNS): 2.48 µM
TGI (SNB-19 CNS): 28 µM
GI50 (SK-OV-3 ovarian): 2.16 µM
TGI (SK-OV-3 ovarian): 7.98 µM
GI50 (KM12 colon): 4.2 µM
TGI (KM12 colon): 21.5 µM
